System: NOMO1
Assay: cell viability relative to DMSO control; higher = less cytotoxic
Settings: 48 h
Summary of the method: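 Viability was expressed as a per-plate percentage of DMSO wells, with cell-free wells as background. Leukemia cells (NOMO1 or SEM at 500 cells/well, P12-Ichikawa at 1000 cells/well) were adapted for at least four passages in each medium and seeded in 1536-well plates (5 μl). Library compounds in DMSO were pin-dosed over an 11-point threefold series from 47 μM to 0.79 nM, and CellTiter-Glo One luminescence was read after 48 h at 37°C.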

[1] = HPLM + 10% dialyzed FBS, 0.000781 µM
[2] = HPLM + 10% dialyzed FBS, 0.00234 µM
[3] = HPLM + 10% dialyzed FBS, 0.00702 µM
[4] = HPLM + 10% dialyzed FBS, 0.0211 µM
[5] = HPLM + 10% dialyzed FBS, 0.0632 µM
[6] = HPLM + 10% dialyzed FBS, 0.19 µM
[7] = HPLM + 10% dialyzed FBS, 0.569 µM
[8] = HPLM + 10% dialyzed FBS, 1.71 µM
[9] = HPLM + 10% dialyzed FBS, 5.12 µM
[10] = HPLM + 10% dialyzed FBS, 15.4 µM
[11] = HPLM + 10% dialyzed FBS, 46.1 µM
[12] = RPMI 5 mM glucose + 10% FBS, 0.000781 µM
[13] = RPMI 5 mM glucose + 10% FBS, 0.00234 µM
[14] = RPMI 5 mM glucose + 10% FBS, 0.00702 µM
[15] = RPMI 5 mM glucose + 10% FBS, 0.0211 µM
[16] = RPMI 5 mM glucose + 10% FBS, 0.0632 µM
[17] = RPMI 5 mM glucose + 10% FBS, 0.19 µM
[18] = RPMI 5 mM glucose + 10% FBS, 0.569 µM
[19] = RPMI 5 mM glucose + 10% FBS, 1.71 µM
[20] = RPMI 5 mM glucose + 10% FBS, 5.12 µM
[21] = RPMI 5 mM glucose + 10% FBS, 15.4 µM
[22] = RPMI 5 mM glucose + 10% FBS, 46.1 µM
[23] = RPMI 5 mM glucose + 10% dialyzed FBS, 0.000781 µM
[24] = RPMI 5 mM glucose + 10% dialyzed FBS, 0.00234 µM
[25] = RPMI 5 mM glucose + 10% dialyzed FBS, 0.00702 µM
[26] = RPMI 5 mM glucose + 10% dialyzed FBS, 0.0211 µM
[27] = RPMI 5 mM glucose + 10% dialyzed FBS, 0.0632 µM
[28] = RPMI 5 mM glucose + 10% dialyzed FBS, 0.19 µM
[29] = RPMI 5 mM glucose + 10% dialyzed FBS, 0.569 µM
[30] = RPMI 5 mM glucose + 10% dialyzed FBS, 1.71 µM
[31] = RPMI 5 mM glucose + 10% dialyzed FBS, 5.12 µM
[32] = RPMI 5 mM glucose + 10% dialyzed FBS, 15.4 µM
[33] = RPMI 5 mM glucose + 10% dialyzed FBS, 46.1 µM

Row | Compound | cell viability [1] [%] | cell viability [2] [%] | cell viability [3] [%] | cell viability [4] [%] | cell viability [5] [%] | cell viability [6] [%] | cell viability [7] [%] | cell viability [8] [%] | cell viability [9] [%] | cell viability [10] [%] | cell viability [11] [%] | cell viability [12] [%] | cell viability [13] [%] | cell viability [14] [%] | cell viability [15] [%] | cell viability [16] [%] | cell viability [17] [%] | cell viability [18] [%] | cell viability [19] [%] | cell viability [20] [%] | cell viability [21] [%] | cell viability [22] [%] | cell viability [23] [%] | cell viability [24] [%] | cell viability [25] [%] | cell viability [26] [%] | cell viability [27] [%] | cell viability [28] [%] | cell viability [29] [%] | cell viability [30] [%] | cell viability [31] [%] | cell viability [32] [%] | cell viability [33] [%]
1 | CC1(C)CCC(C)(C)c2cc(NC(=O)c3ccc(C(=O)O)cc3)ccc21 | 91.4 | 91 | 98.5 | 111 | 101 | 100 | 98.1 | 109 | 79.9 | 92.9 | 60.7 | 85.7 | 90.6 | 89.8 | 97.5 | 95.4 | 97.3 | 99.8 | 101 | 98.5 | 94.4 | 76.1 | 99.8 | 91.9 | 91.3 | 89.8 | 97.7 | 90.2 | 95.3 | 93 | 88.2 | 84.5 | 75.9
2 | Clc1ccc(C(c2ccccc2Cl)C(Cl)Cl)cc1 (stereo unspecified) | 137 | 124 | 123 | 122 | 120 | 107 | 116 | 122 | 114 | 99.8 | 101 | 105 | 115 | 126 | 118 | 137 | 134 | 120 | 119 | 110 | 98.2 | 93.2 | 106 | 115 | 129 | 106 | 111 | 109 | 97.1 | 120 | 101 | 95 | 99.4
3 | O=C1c2ccccc2-c2n[nH]c3cccc1c23 | 109 | 131 | 103 | 111 | 123 | 120 | 92.5 | 122 | 102 | 53.6 | 28.3 | 90.6 | 105 | 110 | 113 | 102 | 127 | 113 | 107 | 117 | 53.7 | 18.2 | 101 | 107 | 98.3 | 114 | 116 | 115 | 120 | 108 | 94.2 | 94.9 | 23.9
4 | CC1=CC/2=C(C=C1C)N(C[C@@H](O)[C@@H](O)[C@@H](O)CO)C/3=N/C(=O)NC(=O)C3=N2 | 130 | 119 | 119 | 115 | 124 | 135 | 139 | 125 | 89.1 | 127 | 46.2 | 108 | 108 | 116 | 118 | 116 | 117 | 110 | 120 | 108 | 111 | 98.5 | 113 | 126 | 113 | 123 | 126 | 123 | 128 | 123 | 108 | 107 | 90.1
5 | C[C@@H]1CC[C@@]2(CC[C@]3(C)\C(=C/C[C@@H]4[C@@]5(C)C[C@@H](O)[C@H](O)[C@@](C)(CO)[C@@H]5CC[C@@]34C)[C@@H]2[C@H]1C)C(O)=O | 120 | 127 | 121 | 109 | 109 | 123 | 123 | 106 | 138 | 120 | 130 | 104 | 99.9 | 117 | 107 | 101 | 104 | 110 | 114 | 109 | 119 | 117 | 104 | 119 | 120 | 115 | 122 | 111 | 125 | 108 | 120 | 114 | 120
6 | C#CCC(Cc1cnc2nc(N)nc(N)c2n1)c1ccc(C(=O)N[C@@H](CCC(=O)O)C(=O)O)cc1 (stereo partly specified) | 124 | 114 | 130 | 128 | 93.6 | 52 | 45.8 | 49.4 | 45.1 | 54.7 | 49.7 | 127 | 122 | 122 | 123 | 114 | 97.7 | 73.9 | 77.1 | 78.4 | 72.4 | 74.9 |  |  |  |  |  |  |  |  |  |  | 
7 | Clc1ccc(CCC(Cn2ccnc2)Sc2c(Cl)cccc2Cl)cc1 (stereo unspecified) | 87.3 | 85.2 | 98 | 103 | 107 | 90.8 | 98.5 | 87 | 93.9 | 93.6 | 90.4 | 77.8 | 80.1 | 86.7 | 83.4 | 89.2 | 88.2 | 86.9 | 85.5 | 85.5 | 81.7 | 79.8 | 87.5 | 83.4 | 94.1 | 89.5 | 95.2 | 94.7 | 90.1 | 96.2 | 83.8 | 102 | 70.7
8 | CCN(CC)CCCC(C)Nc1ccnc2cc(Cl)ccc12 (stereo unspecified) | 112 | 100 | 124 | 115 | 120 | 103 | 104 | 69.7 | 74 | 31.6 | 31.5 | 103 | 112 | 99.2 | 102 | 117 | 108 | 110 | 92.8 | 99.7 | 21.1 | 18 | 124 | 120 | 118 | 134 | 120 | 121 | 120 | 111 | 107 | 26.9 | 26.5
9 | CCC(=O)O[C@@]1(CC[C@H]2[C@@H]3CCC/4=C/C(=O)CC[C@]4(C)[C@H]3CC[C@]12C)C(=O)CO | 75.8 | 115 | 103 | 111 | 119 | 128 | 106 | 140 | 108 | 85.4 | 78.7 | 109 | 112 | 106 | 111 | 107 | 118 | 115 | 104 | 104 | 108 | 103 | 107 | 103 | 102 | 119 | 124 | 122 | 124 | 129 | 128 | 86.1 | 83.3
10 | CC(=O)N(O)CCCCCNC(=O)CCC(=O)N(O)CCCCCNC(=O)CCC(=O)N(O)CCCCCN.C[S+](=O)([O-])O | 90.9 | 83.7 | 81.8 | 32.6 | 34 | 34.6 | 28.3 | 27.2 | 27.7 | 23.6 | 21.5 | 88.8 | 97.4 | 115 | 45.7 | 28.1 | 17.6 | 24.9 | 20.9 | 16.4 | 10.6 | 12.5 | 86 | 105 | 113 | 106 | 79.1 | 26.3 | 26.4 | 21.4 | 23.8 | 18.2 | 17.4
11 | Cc1nnc(C(=O)NC(C)(C)c2nc(C(=O)NCc3ccc(F)cc3)c(O)c(=O)n2C)o1 | 121 | 112 | 119 | 118 | 104 | 103 | 106 | 101 | 95.6 | 97.9 | 96.6 | 87.6 | 99.4 | 96.8 | 92.4 | 96.7 | 99.1 | 100 | 91.2 | 86.5 | 92.2 | 93.3 | 93.7 | 100 | 107 | 93.1 | 109 | 96.6 | 95 | 96.8 | 93.7 | 104 | 94.5
12 | C/C=C(\C)C(=O)N[C@@H](c1ccccc1)[C@@H](O)C(=O)O[C@H]1C[C@@]2(O)[C@@H](OC(=O)c3ccccc3)[C@@H]3[C@]4(OC(C)=O)CO[C@@H]4C[C@H](O)[C@@]3(C)C(=O)[C@H](OC(C)=O)C(=C1C)C2(C)C | 25.1 | 23.3 | 26.8 | 30.3 | 29.7 | 27.4 | 23.4 | 26.9 | 24.1 | 28.9 | 20.7 | 38.9 | 13.2 | 17.4 | 13.8 | 14.7 | 14.3 | 13 | 15.6 | 12.4 | 11.3 | 9.52 | 47.4 | 17.8 | 21.3 | 20.2 | 17.5 | 20.3 | 17.2 | 16.1 | 19.8 | 21.3 | 16.6
13 | CCOc1cc(C(=O)Nc2ccc(Cl)c(-c3nc4ccccc4[nH]3)c2)cc(OCC)c1OCC | 79.3 | 104 | 101 | 102 | 104 | 108 | 105 | 115 | 107 | 116 | 63.3 | 72.8 | 90.6 | 81.9 | 92.8 | 93 | 90.3 | 83.5 | 83.2 | 88.2 | 98.1 | 59.1 | 83.8 | 84.3 | 104 | 84.6 | 84.6 | 90.3 | 87.3 | 95 | 109 | 101 | 50.1
14 | CN1CCC(CNc2ccc3ncc(-c4cccc(OC(F)(F)F)c4)n3n2)CC1 | 101 | 106 | 112 | 113 | 97.8 | 125 | 114 | 104 | 91 | 70.7 | 5.88 | 87.2 | 83.3 | 85.2 | 99.5 | 89.4 | 91.4 | 97.9 | 85.8 | 85.6 | 73.5 | 5.17 | 116 | 93.1 | 97.1 | 88.2 | 99.4 | 97.5 | 104 | 94.9 | 79.3 | 68.5 | 4.98

From the supplement of paper PMC11451515
